Source: patent US9375000B2, “Pesticidal arylpyrrolidines” (Bayer Intellectual Property GmbH, priority 2011, dated 2016)

How the values were obtained:
Assay type in all cases: in vivo
[1] = test system: Two-Spotted Spider Mite (Tetranychus urticae); experiment: Two-spotted spider mite (Tetranychus urticae) spray test on kidney bean; conditions: after 7 days
In short: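 Kidney bean plants at the two-leaf stage carried 50-100 adult mites and were sprayed one day later with compound in DMF/polyoxyethylene alkyl phenyl ether diluted in water. Ammonium salt and penetration enhancer at 1000 ppm were added if needed. Acaricidal activity (% mites killed) was scored after 7 days in a greenhouse.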

Thrips palmi = Thrips palmi spray test (THRIPL); conditions: active compound concentration 20 ppm; after 6 days
Method: Unless not mentioned otherwise, the test solutions were prepared as follows:
Solvent: 3 parts by weight Dimethylformamide
Emulsifier: 1 part by weight Polyoxyethylene alkyl phenyl ether
In order to make an appropriate formulation of an active compound, 1 part by weight of the active compound is mixed with the above mentioned amount of solvent and emulsifier and the mixture is diluted with water to a prescribed concentration. Ammonium salt or ammonium salt and penetration enhancer in a dosage of 1000 ppm are added to the desired concentration if necessary.
The compound solutions are sprayed to a cucumber seedling (Cucumis sativus). After drying, the treated plant is placed in a plastic stand. About 100 thrips-eggs (Thrips palmi) on a piece of filter paper are attached to the plant and covered with a cage to keep 100% humidity. The plant is kept in a room at 23° C. After 6 days activity in % is evaluated by feeding damage degree. An insecticidal activity of 100 means that there was no feeding damage, whereas an insecticidal activity of 0% means that there is no difference to the untreated control.

[2] = test system: Larvae of Spodoptera litura; experiment: Larvae of Spodoptera litura, method using artificial feeds; conditions: artificial feed, after 7 days
In short: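 Compound formulated in dimethylformamide with polyoxyethylene alkyl phenyl ether emulsifier, water-diluted and poured onto artificial diet. Five 3rd-instar Spodoptera litura larvae per cup, held at 25° C and 50-60% humidity. Mortality after 7 days expressed as pesticidal ratio.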

[3] = test system: Cucurbit Leaf Beetle (Aulacophora femoralis); experiment: Cucurbit leaf beetle (Aulacophora femoralis) cucumber leaf dip test; conditions: after 7 days
In short: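 Cucumber leaves dipped in compound formulated with DMF and polyoxyethylene alkyl phenyl ether, diluted in water, with ammonium salt or ammonium salt plus penetration enhancer at 1000 ppm added if necessary; dried leaves placed on sterilized soil with five second-instar larvae. Kept at 25° C; larval mortality counted after 7 days.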

[4] = active compound concentration 20 ppm
[5] = active compound concentration 4 ppm

Structure (SMILES)	acaricidal activity [1, 4] [%]	insecticidal activity (by feeding damage degree) (Thrips palmi) [%]	insecticidal activity (pesticidal ratio) [2, 5] [%]	insecticidal activity (pesticidal ratio) [2, 4] [%]	insecticidal activity [3, 5] [%]	insecticidal activity [3, 4] [%]	acaricidal activity [1, 5] [%]	pest or weed control at 20 ppm ([1]; Tetranychus urticae, 168 h, active compound concentration 20 ppm, read-out: acaricidal activity) [%]	pest or weed control at 20 ppm ([2]; Spodoptera litura, 168 h, active compound concentration 20 ppm, read-out: insecticidal activity (pesticidal ratio)) [%]	pest or weed control at 20 ppm ([3]; Aulacophora, foliar, 168 h, active compound concentration 20 ppm, read-out: insecticidal activity) [%]
CC(=O)NCc1ccc(N2CCC(c3cc(Cl)cc(C(F)(F)F)c3)(C(F)(F)F)C2O)nc1C(F)(F)F (mixture of isomers) [A3-265]	100	90	100	100	100	100	–	–	–	–
O=C(CC(F)(F)F)NCc1ccc(N2CCC(c3cc(Cl)c(Cl)c(Cl)c3)(C(F)(F)F)C2O)nc1C(F)(F)F (centres unmarked) [A3-18]	100	98	100	100	100	100	100	–	–	–
O=C(NCc1ccc(N2CCC(c3cc(F)cc(C(F)(F)F)c3)(C(F)(F)F)C2O)cc1C(F)(F)F)C1CC1 (centres unmarked) [A1-319]	100	90	100	100	100	100	100	–	–	–
Cc1nc(N2CCC(c3cc(Cl)c(Cl)c(Cl)c3)(C(F)(F)F)C2O)ncc1CNC(=O)C1CC1 (centres unmarked) [A4-49]	–	98	100	100	–	100	98	–	–	–
CC(=O)NCc1ccc(N2CCC(c3cc(C(F)(F)F)cc(C(F)(F)F)c3)(C(F)(F)F)C2O)cc1Br (centres unmarked) [A1-216]	–	90	100	–	100	–	90	–	–	–
CCC(=O)NCc1cc(F)c(N2CCC(c3cc(Cl)c(Cl)c(Cl)c3)(C(F)(F)F)C2O)nc1Cl (centres unmarked) [A3-367]	–	90	100	–	–	–	–	–	–	–
O=C(CC1CC1)NCc1ccc(N2CCC(c3cc(Cl)c(Cl)c(Cl)c3)(C(F)(F)F)C2O)nc1C(F)(F)F (centres unmarked) [A3-17]	100	90	100	100	–	–	100	–	–	–
CCC(=O)NCc1ccc(N2CCC(c3ccc(F)c(C(F)(F)F)c3)(C(F)(F)F)C2O)nc1C(F)(F)F (mixture of isomers) [A3-233]	–	90	100	100	100	100	–	–	–	–
N#CCC(=O)NCc1ccc(N2CCC(c3cc(C(F)(F)F)cc(C(F)(F)F)c3)(C(F)(F)F)C2O)cc1C(F)(F)F (centres unmarked) [A1-528]	–	–	100	–	100	–	98	–	–	–
COCCC(=O)NCc1ccc(N2CCC(c3cc(C(F)(F)F)cc(C(F)(F)F)c3)(C(F)(F)F)C2O)cc1Cl (centres unmarked) [A1-30]	100	–	–	100	–	100	–	–	–	–
O=C(NCc1ccc(N2CCC(c3cc(C(F)(F)F)cc(C(F)(F)F)c3)(C(F)(F)F)C2O)nc1Br)C1CC1 (centres unmarked) [A3-159]	100	–	–	100	–	100	–	–	–	–
O=C(NCc1cnc(N2CCC(c3cc(Cl)c(Cl)c(Cl)c3)(C(F)(F)F)C2O)nc1C(F)(F)F)C1CC1 (centres unmarked) [A4-16, N-({2-[2-hydroxy-3-(3,4,5-trichlorophenyl)-3-(trifluoromethyl)-pyrrolidin-1-yl]-4-(trifluoromethyl)pyrimidin-5-yl}methyl)cyclopropanecarboxamide]	–	–	–	–	–	–	–	100	100	100
CCC(=O)NCc1ccc(N2CCC(c3cc(Cl)c(Cl)c(Cl)c3)(C(F)(F)F)C2O)cc1C(F)(F)F (centres unmarked) [A1-46]	100	–	–	100	–	100	–	–	–	–
CS(=O)(=O)CC(=O)NCc1cnc(N2CCC(c3cc(C(F)(F)F)cc(C(F)(F)F)c3)(C(F)(F)F)C2O)nc1C(F)(F)F (centres unmarked) [A4-33]	100	–	–	100	–	100	–	–	–	–
Cc1nc(N2CCC(c3cc(Cl)c(Cl)c(Cl)c3)(C(F)(F)F)C2O)ccc1CNC(=O)CC(F)(F)F (centres unmarked) [A3-84]	100	–	–	100	–	100	–	–	–	–
CC(C)C(=O)NCc1ccc(N2CCC(c3cc(Cl)c(Cl)c(Cl)c3)(C(F)(F)F)C2O)nc1C(F)(F)F (centres unmarked) [A3-15]	100	90	100	100	–	–	100	–	–	–
O=C(NCc1ccc(N2CCC(c3cc(Cl)cc(Cl)c3)(C(F)(F)F)C2O)cc1C(F)(F)F)C1CCC1 (centres unmarked) [A1-361]	100	–	–	100	–	100	–	–	–	–
CCC(=O)NCc1ccc(N2CCC(c3ccc(F)c(C(F)(F)F)c3)(C(F)(F)F)C2O)cc1C(F)(F)F (racemic) [A1-305]	100	–	–	100	–	100	–	–	–	–
O=C(NCc1ccc(N2CCC(c3cc(Cl)c(F)c(Cl)c3)(C(F)(F)F)C2O)nc1C(F)(F)F)C1CC1 (mixture of isomers) [A3-203]	100	–	–	100	–	100	–	–	–	–
O=C(CC(F)(F)F)NCc1ccc(N2CCC(c3cc(C(F)(F)F)cc(C(F)(F)F)c3)(C(F)(F)F)C2O)nc1C(F)(F)F (centres unmarked) [A3-29]	100	–	–	100	–	100	–	–	–	–
O=C(NCc1ccc(N2CCC(c3cc(C(F)(F)F)cc(C(F)(F)F)c3)(C(F)(F)F)C2O)cc1F)C1CC1 (mixture of isomers) [A1-209]	100	–	–	100	–	100	–	–	–	–
CSCC(=O)NCc1ccc(N2CCC(c3cc(C(F)(F)F)cc(C(F)(F)F)c3)(C(F)(F)F)C2O)nc1Br (mixture of isomers) [A3-163]	100	–	100	100	100	100	–	–	–	–
CCC(=O)NCc1ccc(N2CCC(c3cc(Cl)c(F)c(Cl)c3F)(C(F)(F)F)C2O)cc1Br (centres unmarked) [A1-430]	100	–	100	–	100	–	–	–	–	–
CC(=O)NCc1ccc(N2CCC(c3cc(Cl)cc(Cl)c3)(C(F)(F)F)C2O)nc1C(F)(F)F (centres unmarked) [A3-1]	100	–	–	100	–	100	–	–	–	–
CCC(=O)NCc1ccc(N2CCC(c3cc(F)c(F)c(F)c3)(C(F)(F)F)C2O)cc1C(F)(F)F (centres unmarked) [A1-261]	100	–	100	100	–	100	–	–	–	–
CCC(=O)NCc1ccc(N2CCC(c3cc(Cl)c(F)c(Cl)c3F)(C(F)(F)F)C2O)nc1C(F)(F)F (mixture of isomers) [A3-211]	100	–	100	100	100	100	100	–	–	–
CCC(=O)NCc1cc(F)c(N2CCC(c3cc(Cl)c(Cl)c(Cl)c3)(C(F)(F)F)C2O)cc1F (centres unmarked) [A1-454]	100	–	–	100	–	100	–	–	–	–
CCC(=O)NCc1ccc(N2CCC(c3cc(Cl)cc(Cl)c3)(C(F)(F)F)C2O)cc1F (mixture of isomers) [A1-96]	–	90	–	–	–	100	–	–	–	–
CC(=O)NCc1cc(F)c(N2CCC(c3cc(Cl)c(Cl)c(Cl)c3)(C(F)(F)F)C2O)nc1Cl (centres unmarked) [A3-366]	–	98	100	–	–	–	–	–	–	–
O=C(NCc1ccc(N2CCC(c3cc(Cl)c(Cl)c(Cl)c3)(C(F)(F)F)C2O)cc1C(F)(F)F)C1CC1 (centres unmarked) [A1-49]	100	–	–	100	–	100	–	–	–	–
